Results as given in article PMC2699670 (Anesthesiology, 2009).

Legend:
rat Nav1.4 α-subunit [1] = target: T1, rat Nav1.4 α-subunit (Rattus norvegicus, UniProt P15390); test: whole-cell patch clamp, peak INa; format: cell-based
rat Nav1.4 α-subunit [2] = target: T1, rat Nav1.4 α-subunit; test: whole-cell patch clamp, peak INa; format: cell-based; remark: listed apart in the source

T1 sequence (P15390 whole entry): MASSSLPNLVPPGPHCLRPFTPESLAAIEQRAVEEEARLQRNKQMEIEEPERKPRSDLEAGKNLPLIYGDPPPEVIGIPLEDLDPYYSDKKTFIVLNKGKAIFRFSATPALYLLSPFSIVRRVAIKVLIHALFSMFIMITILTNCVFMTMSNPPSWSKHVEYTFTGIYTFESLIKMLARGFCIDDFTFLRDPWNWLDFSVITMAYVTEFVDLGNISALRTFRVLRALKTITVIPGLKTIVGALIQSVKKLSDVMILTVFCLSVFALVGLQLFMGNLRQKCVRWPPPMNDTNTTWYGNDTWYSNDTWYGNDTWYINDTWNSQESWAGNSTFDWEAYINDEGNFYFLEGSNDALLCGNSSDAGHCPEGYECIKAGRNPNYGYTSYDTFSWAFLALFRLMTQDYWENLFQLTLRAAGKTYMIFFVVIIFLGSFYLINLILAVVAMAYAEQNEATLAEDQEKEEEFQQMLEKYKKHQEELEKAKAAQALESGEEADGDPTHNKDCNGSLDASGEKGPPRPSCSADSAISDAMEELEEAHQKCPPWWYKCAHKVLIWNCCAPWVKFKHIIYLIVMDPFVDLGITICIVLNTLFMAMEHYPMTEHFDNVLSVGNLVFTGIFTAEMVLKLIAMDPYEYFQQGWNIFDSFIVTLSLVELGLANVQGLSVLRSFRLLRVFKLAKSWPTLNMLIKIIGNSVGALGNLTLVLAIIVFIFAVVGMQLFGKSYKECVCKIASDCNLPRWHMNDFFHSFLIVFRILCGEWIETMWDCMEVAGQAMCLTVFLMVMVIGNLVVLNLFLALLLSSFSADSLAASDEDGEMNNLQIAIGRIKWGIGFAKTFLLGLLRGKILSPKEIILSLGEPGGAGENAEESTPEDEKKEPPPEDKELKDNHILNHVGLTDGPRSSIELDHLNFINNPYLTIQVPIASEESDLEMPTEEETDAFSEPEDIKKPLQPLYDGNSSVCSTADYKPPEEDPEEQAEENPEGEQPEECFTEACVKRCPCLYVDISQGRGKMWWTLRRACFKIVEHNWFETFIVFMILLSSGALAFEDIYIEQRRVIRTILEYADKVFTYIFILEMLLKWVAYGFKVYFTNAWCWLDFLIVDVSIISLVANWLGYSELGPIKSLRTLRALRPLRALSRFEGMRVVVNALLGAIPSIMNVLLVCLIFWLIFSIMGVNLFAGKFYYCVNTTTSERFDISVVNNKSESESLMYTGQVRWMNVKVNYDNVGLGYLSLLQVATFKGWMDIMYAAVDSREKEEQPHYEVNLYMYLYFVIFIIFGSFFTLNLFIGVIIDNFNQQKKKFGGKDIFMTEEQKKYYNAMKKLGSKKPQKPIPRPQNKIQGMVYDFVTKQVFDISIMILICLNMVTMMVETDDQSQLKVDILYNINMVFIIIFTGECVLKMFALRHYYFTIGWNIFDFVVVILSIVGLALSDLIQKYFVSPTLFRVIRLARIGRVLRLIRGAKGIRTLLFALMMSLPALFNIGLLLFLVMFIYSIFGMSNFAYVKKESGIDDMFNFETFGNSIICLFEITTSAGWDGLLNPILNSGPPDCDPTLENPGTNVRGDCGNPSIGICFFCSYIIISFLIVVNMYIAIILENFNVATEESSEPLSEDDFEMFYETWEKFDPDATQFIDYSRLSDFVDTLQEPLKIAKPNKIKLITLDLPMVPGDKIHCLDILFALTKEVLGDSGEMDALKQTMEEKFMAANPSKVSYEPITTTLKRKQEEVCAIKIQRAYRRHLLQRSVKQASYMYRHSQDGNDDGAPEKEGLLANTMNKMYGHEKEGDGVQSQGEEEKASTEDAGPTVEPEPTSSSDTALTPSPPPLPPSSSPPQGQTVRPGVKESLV

## FCOC(C(F)(F)F)C(F)(F)F [sevoflurane]
Rat Nav1.4 α-subunit [1]; read-out: % inhibition at 0.44 mM
  inhibition at 440 µM: 17 ± 3.3%

## FC(F)OC(F)(F)C(F)Cl (centres unmarked) [enflurane]
Rat Nav1.4 α-subunit [1]; read-out: % inhibition at 0.82 mM
  inhibition at 820 µM: 32 ± 6.7%

## FC(F)(F)C(Cl)Br (centres unmarked) [halothane]
Rat Nav1.4 α-subunit [1]; read-out: % inhibition at 0.42 mM
  inhibition at 420 µM: 32 ± 3.5%

## FC(F)OC(Cl)C(F)(F)F (centres unmarked) [isoflurane]
Rat Nav1.4 α-subunit [2]
  IC50: 1160 µM
Rat Nav1.4 α-subunit [1]; read-out: % inhibition at 0.46 mM
  inhibition at 460 µM: 19 ± 1.9%
